From patent US9221809B2 (MERCK SHARP & DOHME CORP., priority 2011, dated 2015)
Where a name gives a salt, the structure may show the parent alone.

Target: IRAK4 (Homo sapiens (Human), UniProt Q9NWZ3)
Assay: IRAK4 kinase activity, IMAP fluorescence polarization assay
Assay type: biochemical
Settings: 100 μM ATP, 0.5 nM GST tagged IRAK4; read-out: IRAK4 IC50
Procedure, shortened: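 Fluorescence polarization (IMAP nanoparticle binding of phosphopeptide) reports activity after a 30 min, 25 °C reaction. Conditions: 100 μM ATP, 0.5 nM GST-IRAK4, 100 nM fluorescent peptide, 10 mM Tris pH 7.2, 1 mM MgCl2, 1 mM DTT, 0.01% Tween 20.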

Sequence of IRAK4 (Q9NWZ3 whole entry): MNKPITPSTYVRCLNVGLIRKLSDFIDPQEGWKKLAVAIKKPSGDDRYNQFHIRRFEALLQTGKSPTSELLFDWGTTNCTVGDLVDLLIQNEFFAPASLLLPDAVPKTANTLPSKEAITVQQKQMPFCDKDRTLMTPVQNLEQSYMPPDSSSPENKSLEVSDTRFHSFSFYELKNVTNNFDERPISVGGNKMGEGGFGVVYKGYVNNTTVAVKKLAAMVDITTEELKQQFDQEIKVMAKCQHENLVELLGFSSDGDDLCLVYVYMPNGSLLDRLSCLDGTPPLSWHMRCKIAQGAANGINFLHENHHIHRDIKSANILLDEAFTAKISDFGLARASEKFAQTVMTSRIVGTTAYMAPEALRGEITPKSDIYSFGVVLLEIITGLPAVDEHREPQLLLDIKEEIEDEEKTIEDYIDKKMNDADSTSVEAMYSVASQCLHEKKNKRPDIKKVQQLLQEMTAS

| IC50 | Compound |
| --- | --- |
| 654 nM | O=c1[nH]c(Nc2ccncc2)nc(N[C@@H]2C[C@H](CO)[C@@H](O)[C@H]2O)c1-c1nc2ccccc2s1 [Example 54, 5-(Benzo[d]thiazol-2-yl)-6-((1R,2S,3R,4R)-2,3-dihydroxy-4-(hydroxymethyl)cyclopentylamino)-2-(pyridin-4-ylamino)pyrimidin-4(3H)-one.HCl] |
| 433 nM | O=c1[nH]c(N2CCOCC2)nc(N[C@@H]2CCCNC2)c1-c1nc(C2CC2)cs1 [Example 100, (R)-5-(4-cyclopropylthiazol-2-yl)-2-morpholino-6-(piperidin-3-ylamino)pyrimidin-4(3H)-one.HCl] |
| 923 nM | Cc1cc2sc(-c3c(N[C@@H]4C[C@H](CO)[C@@H](O)[C@H]4O)nc(N4CCOCC4)[nH]c3=O)nc2c(C)n1 [Example 57, 6-(((1R,2S,3R,4R)-2,3-Dihydroxy-4-(hydroxymethyl)cyclopentyl)amino)-5-(4,6-dimethylthiazolo[4,5-c]pyridin-2-yl)-2-morpholinopyrimidin-4(3H)-one.HCl] |
| 92 nM | O=c1[nH]c(NC2CCCC2)nc(N[C@@H]2C[C@H](CO)[C@@H](O)[C@H]2O)c1-c1nc2ccccc2s1 [Example 4, 5-(Benzo[d]thiazol-2-yl)-2-(cyclopentylamino)-6-((1R,2S,3R,4R)-2,3-dihydroxy-4-(hydroxymethyl)cyclopentylamino)pyrimidin-4(3H)-one.HCl] |
| 177 nM | O=c1[nH]c(N2CCOCC2)nc(NC2CCNC2)c1-c1nc2ccccc2s1 (stereo not drawn) [Example 85, 5-(Benzo[d]thiazol-2-yl)-2-morpholino-6-(pyrrolidin-3-ylamino)pyrimidin-4(3H)-one.HCl] |
| 541 nM | C[C@H]1CC[C@@H](Nc2nc(N3CCOCC3)[nH]c(=O)c2-c2ccc3ccccc3n2)CN1 (racemic) [Example 122, 6-(methylpiperidin-3-yl)amino-2-morpholino-5-(quinolin-2-yl)pyrimidin-4(3H)-one.HCl] |
| 36 nM | O=c1[nH]c(N2CCOCC2)nc(N[C@@H]2CCNC2)c1-c1nc2ccccc2s1 [Example 87, (R)-5-(Benzo[d]thiazol-2-yl)-2-morpholino-6-(pyrrolidin-3-ylamino)pyrimidin-4(3H)-one.HCl] |
| 20 nM | O=c1[nH]c(N2CCN(c3cccnc3)CC2)nc(N[C@@H]2CCCNC2)c1-c1nc(-c2ccc(F)cc2)cs1 [Example 349, 5-[4-(4-fluorophenyl)-1,3-thiazol-2-yl]-6-[[(3R)-piperidin-3-yl]amino]-2-[4-(pyridin-3-yl)piperazin-1-yl]-3,4-dihydropyrimidin-4-one] |

Same assay, conditions: 100 μM ATP; read-out: IC50

| Compound | IC50 |
| --- | --- |
| CN(Cc1ccccc1)c1nc(N[C@@H]2CCCNC2)c(-c2nc3ccccc3s2)c(=O)[nH]1 [Example 307, 5-(1,3-benzothiazol-2-yl)-2-[benzyl(methyl)amino]-6-[[(3R)-piperidin-3-yl]amino]-3,4-dihydropyrimidin-4-one dihydrocbloride] | 310 nM |
| CC(=O)NC1CCN(c2nc(N[C@@H]3CCCNC3)c(-c3nc4ccccc4s3)c(=O)[nH]2)CC1 [Example 333, N-[1-[5-(1,3-benzothiazol-2-yl)-6-oxo-4-[[(3R)-piperidin-3-yl]amino]-1,6-dihydropyrimidin-2-yl]piperidin-4-yl]acetamide trifluoroacetic acid] | 94 nM |
| O=c1[nH]c(N2CCC3(CCN(c4ccc(Cl)cc4)C3)C2)nc(N[C@@H]2CCCNC2)c1-c1nc2ccccc2s1 (stereo partly drawn) [Example 331, 5-(1,3-benzothiazol-2-yl)-2-[7-(4-chlorophenyl)-2,7-diazaspiro[4.4]nonan-2-yl]-6-[[(3R)-piperidin-3-yl]amino]-3,4-dihydropyrimidin-4-one trifluoroacetic acid] | 47 nM |
| CN(CCO)c1nc(N[C@@H]2CCCNC2)c(-c2nc3ccccc3s2)c(=O)[nH]1 [Example 292, (R)-5-(benzo[d]thiazol-2-yl)-2-((2-hydroxyethyl)(methyl)amino)-6-(piperidin-3-ylamino)pyrimidin-4(3H)-one] | 190 nM |
| O=C(O)C1CN(c2nc(N[C@@H]3CCCNC3)c(-c3nc4ccccc4s3)c(=O)[nH]2)CCO1 (stereo partly drawn) [Example 320, 4-[5-(1,3-benzothiazol-2-yl)-6-oxo-4-[[(3R)-piperidin-3-yl]amino]-1,6-dihydropyrimidin-2-yl]morpholine-2-carboxylic acid] | 250 nM |
| CC1CC(C)CN(c2nc(N[C@@H]3CCCNC3)c(-c3nc4ccccc4s3)c(=O)[nH]2)C1 (stereo partly drawn) [Example 296, 5-(1,3-benzothiazol-2-yl)-2-(3,5-dimethylpiperidin-1-yl)-6-[[(3R)-piperidin-3-yl]amino]-3,4-dihydropyrimidin-4-one trifluoroacetic acid] | 570 nM |

Other lines, results leading:

| IC50 | Compound |
| --- | --- |
| 100 nM | O=C(NC1CCN(c2nc(N[C@@H]3CCCNC3)c(-c3nc4ccccc4s3)c(=O)[nH]2)CC1)OCc1ccccc1 [Example 323, Benzyl N-[1-[5-(1,3-benzothiazol-2-yl)-6-oxo-4-[[(3R)-piperidin-3-yl]amino]-1,6-dihydropyrimidin-2-yl]piperidin-4-yl]carbamate trifluoroacetic acid] |
| 550 nM | CCS(=O)(=O)N1CCC(c2nc(N[C@@H]3CCCNC3)c(-c3nc4ccccc4s3)c(=O)[nH]2)CC1 [Example 236] |
| 200 nM | CNC(=O)N1CCC(c2nc(N[C@@H]3CCCNC3)c(-c3nc4ccccc4s3)c(=O)[nH]2)CC1 [Example 240, (R)-4-[5-(1,3-benzo-thiazol-2-yl)-6-oxo-4-[[(3R)-piperidin-3-yl]amino]-1,6-dihydro-pyrimidin-2-yl]-N-methyl-piperidine-1-carboxamide] |
| 140 nM | CC1CCCN(c2nc(N[C@@H]3CCCNC3)c(-c3nc4ccccc4s3)c(=O)[nH]2)C1 (stereo partly drawn) [Example 290, 5-(benzo[d]thiazol-2-yl)-2-(3-methylpiperidin-1-yl)-6-((R)-piperidin-3-ylamino)pyrimidin-4(3H)-one] |
| 110 nM | O=c1[nH]c(N2CCC(NCc3ccccc3)CC2)nc(N[C@@H]2CCCNC2)c1-c1nc2ccccc2s1 [Example 332, 5-(1,3-benzothiazol-2-yl)-2-[4-(benzylamino)piperidin-1-yl]-6-[[(3R)-piperidin-3-yl]amino]-3,4-dihydropyrimidin-4-one trifluoroacetic acid] |
| 62 nM | O=c1[nH]c(N2CCC(CO)CC2)nc(N[C@@H]2CCCNC2)c1-c1nc2ccccc2s1 [Example 305, 5-(1,3-benzothiazol-2-yl)-2-[4-(hydroxymethyl)piperidin-1-yl]-6-[[(3R)-piperidin-3-yl]amino]-3,4-dihydropyrimidin-4-one] |
| 17 nM | O=c1[nH]c(N2CC[C@@H](O)C2)nc(N[C@@H]2CCCNC2)c1-c1nc2ccccc2s1 [Example 315] |
| 180 nM | O=c1[nH]c(C2CCN(c3cnccn3)CC2)nc(N[C@@H]2CCCNC2)c1-c1nc2ccccc2s1 [Example 243, (R)-5-(benzo[d]thiazol-2-yl)-6-(piperidin-3-ylamino)-2-(1-(pyrazin-2-yl)piperidin-4-yl)pyrimidin-4(3H)-one] |
| 71 nM | O=c1[nH]c(N2CCCCC2)nc(N[C@@H]2CCCNC2)c1-c1nc2ccccc2s1 [Example 309, 5-(1,3-benzothiazol-2-yl)-2-(piperidin-1-yl)-6-[[(3R)-piperidin-3-yl]amino]-3,4-dihydropyrimidin-4-one hydrochloride] |

Same assay, conditions: 100 μM ATP; read-out: IRAK4 IC50

| Compound | IC50 |
| --- | --- |
| CS(=O)(=O)c1ccc(N2CCN(c3nc(N[C@@H]4CCCNC4)c(-c4nc5ccccc5s4)c(=O)[nH]3)CC2)c(Cl)c1 [Example 147, (R)-5-(benzo[d]thiazol-2-yl)-2-(4-(2-chloro-4-(methylsulfonyl)phenyl)piperazin-1-yl)-6-(piperidin-3-ylamino)pyrimidin-4(3H)-one] | 11 nM |
| O=c1[nH]c(N2CCOCC2)nc(N[C@@H]2CCCNC2)c1-c1nc(-c2cc(F)cc(F)c2)cs1 [Example 203] | 99 nM |
| O=c1[nH]c(N2CCOC(C(F)(F)F)C2)nc(N[C@@H]2CCCNC2)c1-c1nc2ccccc2s1 (stereo partly drawn) [Example 130, 5-(benzo[d]thiazol-2-yl)-6-((R)-piperidin-3-ylamino)-2-(2-(trifluoromethyl)morpholino)pyrimidin-4(3H)-one] | 201 nM |
| O=c1[nH]c(N2CCCC2c2ccncc2)nc(N[C@@H]2CCCNC2)c1-c1ccc2ccccc2n1 (stereo partly drawn) [Example 182, 6-((R)-piperidin-3-ylamino)-2-(2-(pyridin-4-yl)pyrrolidin-1-yl)-5-(quinolin-2-yl)pyrimidin-4(3H)-one] | 3180 nM |
| O=c1[nH]c(N2CCOCC2)nc(N[C@@H]2CCCNC2)c1-c1ccccn1 [Example 199] | 4760 nM |
| O=c1[nH]c(N2CCOCC2)nc(N[C@@H]2CCCNC2)c1-c1nc2ccccc2o1 [Example 196] | 1800 nM |

Results, then the compound that gave them:

| IC50 | Compound |
| --- | --- |
| 8 nM | Cc1cc(N2CCN(c3nc(N[C@@H]4CCCNC4)c(-c4nc5ccccc5s4)c(=O)[nH]3)CC2)sn1 [Example 157, (R)-5-(benzo[d]thiazol-2-yl)-2-(4-(3-methylisothiazol-5-yl)piperazin-1-yl)-6-(piperidin-3-ylamino)pyrimidin-4(3H)-one] |
| 16 nM | O=c1[nH]c(N2CCN(c3ccccc3F)CC2)nc(N[C@@H]2CCCNC2)c1-c1nc2ccccc2s1 [Example 146, (R)-5-(benzo[d]thiazol-2-yl)-2-(4-(2-fluorophenyl)piperazin-1-yl)-6-(piperidin-3-ylamino)pyrimidin-4(3H)-one] |

Same assay, conditions: unit inferred; 100 μM ATP; read-out: IRAK4 IC50

| IC50 | Compound |
| --- | --- |
| 36 nM | O=c1[nH]c(N2CCC(c3ccccn3)CC2)nc(N[C@@H]2C[C@H](CO)[C@@H](O)[C@H]2O)c1-c1nc2ccccc2s1 [Example 78, 5-(benzo[d]thiazol-2-yl)-6-((1R,2S,3R,4R)-2,3-dihydroxy-4-(hydroxymethyl)cyclopentylamino)-2-(4-(pyridin-2-yl)piperidin-1-yl)pyrimidin-4(3H)-one] |
| 197 nM | O=c1[nH]c(N2CCC(c3ccccn3)C2)nc(N[C@@H]2C[C@H](CO)[C@@H](O)[C@H]2O)c1-c1nc2ccccc2s1 (stereo partly drawn) [Example 82, 5-(benzo[d]thiazol-2-yl)-6-((1R,2S,3R,4R)-2,3-dihydroxy-4-(hydroxymethyl)cyclopentylamino)-2-(3-(pyridin-2-yl)pyrrolidin-1-yl)pyrimidin-4(3H)-one] |
